Assay results published in patent publication US20070128217A1 (priority 2003, published 2007).

Tests used:
[1] = system: antibodies in sera from SARS patients (sera 1a, 1b, 2, 6, 37, 62, London, SARS-yellow, SARS-green); assay type: binding, human; design: Binding of serum 6 to linear peptides of protein X1 of SARS-CoV Urbani / Binding of serum 37 to linear peptides of protein X1 of SARS-CoV Urbani / Binding of serum 6 to looped/cyclic peptide (PEPSCAN-ELISA) / Binding of serum 37 to looped/cyclic peptide (PEPSCAN-ELISA) / Binding of serum 37 to looped/cyclic peptides of protein X1 of SARS-CoV Urbani / Binding of serum 6 to linear peptides of protein X2 / Binding of serum 37 to linear peptides of protein X2 / Binding of serum 37 to looped/cyclic peptides of protein X2 of SARS-CoV Urbani / Binding of serum 6 to linear peptides of protein M of SARS-CoV Urbani / Binding of serum 37 to linear peptides of protein M of SARS-CoV Urbani / Binding of serum 6 to looped/cyclic peptides of protein M of SARS-CoV Urbani / Binding of serum 37 to looped/cyclic peptides of protein M of SARS-CoV Urbani / Binding of serum 6 to linear peptides of protein X3 of SARS-CoV Urbani / Binding of serum 37 to linear peptides of protein X3 of SARS-CoV Urbani / Binding of serum 37 to looped/cyclic peptides of protein X3 of SARS-CoV Urbani / Binding of serum 6 to linear peptides of protein X4 of SARS-CoV Urbani / Binding of serum 37 to linear peptides of protein X4 of SARS-CoV Urbani / Binding of serum 37 to looped/cyclic peptides of protein X4 of SARS-CoV Urbani / Binding of serum 6 to linear peptides of protein X5 of SARS-CoV Urbani / Binding of serum 37 to linear peptides of protein X5 of SARS-CoV Urbani / Binding of serum 37 to looped/cyclic peptides of protein X5 of SARS-CoV Urbani / Binding of serum 6 to linear peptides of protein N of SARS-CoV Urbani / Binding of serum 37 to linear peptides of protein N of SARS-CoV Urbani / Binding of serum 6 to linear peptide (PEPSCAN-ELISA) / Binding of serum 1a to looped/cyclic peptides of protein N of SARS-CoV Urbani / Binding of serum 1b to looped/cyclic peptides of protein N of SARS-CoV Urbani / Binding of serum 2 to looped/cyclic peptides of protein N of SARS-CoV Urbani / Binding of serum 6 to looped/cyclic peptides of protein N of SARS-CoV Urbani / Binding of serum 37 to looped/cyclic peptides of protein N of SARS-CoV Urbani / Binding of serum 62 to looped/cyclic peptides of protein N of SARS-CoV Urbani / Binding of serum London to looped/cyclic peptides of protein N of SARS-CoV Urbani / Binding of serum SARS-green to looped/cyclic peptides of protein N of SARS-CoV Urbani: unit not given here
[2] = system: recombinant human anti-SARS-CoV antibody 03-018; assay type: binding; design: Binding of antibody 03-018 to linear peptides of the N protein of SARS-CoV Urbani / Binding of antibody 03-018 to looped/cyclic peptides of the N protein of SARS-CoV Urbani: unit not given here
[3] = system: control sera (pooled serum of ten healthy LUMC hospital workers; commercial negative donor pooled serum from the Dutch bloodbank); assay type: binding, human; design: Binding of Control serum LUMC to linear peptides / Binding of Control serum Blood-bank to linear peptides / Binding of Control serum LUMC to looped peptides / Binding of Control Serum Blood-Bank to Looped peptides / Binding of Control serum LUMC to linear peptides of the protein M of SARS-CoV Urbani / Binding of Control serum Blood-bank to linear peptides of the protein M of SARS-CoV Urbani / Binding of Control serum LUMC to looped peptides of the protein M of SARS-CoV Urbani / Binding of Control Serum Blood-Bank to Looped peptides of the protein M of SARS-CoV Urbani: unit not given here
[4] = system: rabbit serum obtained by immunizing a rabbit with the SARS-CoV strain Frankfurt 1; assay type: binding; design: Binding of a rabbit serum to linear peptides / Binding of a rabbit serum to looped peptides / Rabbit serum linear peptides / Rabbit serum looped peptides / Binding of a rabbit serum to linear peptides of protein N of SARS-CoV Urbani (Rabbit serum linear peptides) / Binding of a rabbit serum to looped/cyclic peptides of protein N of SARS-CoV Urbani (Rabbit serum looped peptides): unit not given here

Row | Sequence | Binding of serum 1a to linear peptides of protein N of SARS-CoV Urbani [1] | Binding of serum 1a to looped/cyclic peptides of protein N of SARS-CoV Urbani [1] | Binding of serum 1b to linear peptides of protein N of SARS-CoV Urbani [1] | Binding of serum 1b to looped/cyclic peptides of protein N of SARS-CoV Urbani [1] | Binding of serum 2 to linear peptides of protein N of SARS-CoV Urbani [1] | Binding of serum 2 to looped/cyclic peptides of protein N of SARS-CoV Urbani [1] | Binding of serum 6 to looped/cyclic peptides of protein N of SARS-CoV Urbani [1] | Binding of serum 37 to looped/cyclic peptides of protein N of SARS-CoV Urbani [1] | Binding of serum 62 to looped/cyclic peptides of protein N of SARS-CoV Urbani [1] | Binding of serum London to looped/cyclic peptides of protein N of SARS-CoV Urbani [1] | Binding of serum SARS-green to looped/cyclic peptides of protein N of SARS-CoV Urbani [1] | Binding of serum SARS-yellow to looped/cyclic peptides of protein N of SARS-CoV Urbani [1] | Binding of antibody 03-018 to linear peptides of the N protein of SARS-CoV Urbani [2] | Binding of antibody 03-018 to looped/cyclic peptides of the N protein of SARS-CoV Urbani [2] | Binding of Control Serum Blood-Bank to Looped peptides [3] | Binding of Control serum Blood-bank to linear peptides [3] | Binding of Control serum LUMC to linear peptides [3] | Binding of Control serum LUMC to looped peptides [3] | Binding of a rabbit serum to linear peptides of protein N of SARS-CoV Urbani (Rabbit serum linear peptides) [4] | Binding of a rabbit serum to looped/cyclic peptides of protein N of SARS-CoV Urbani (Rabbit serum looped peptides) [4] | also measured
1 | ELRFPRGQGVPINTN | 0.2 | 0.4 | 0.1 | 0.3 | 0.3 | 0.5 | 0.3 | 0.7 | 0.6 | 0.5 | 0.7 | 0.4 | 0.1 | 0.2 | 0.7 | 0.6 | 0.8 | 0.7 | 0.1 | 0.4 | Binding of serum 6 to linear peptides of protein N of SARS-CoV Urbani [1]: 0.1; Binding of serum 37 to linear peptides of protein N of SARS-CoV Urbani [1]: 0.7; Binding of serum 62 to linear peptides of protein N of SARS-CoV Urbani [1]: 0.7; Binding of serum London to linear peptides of protein N of SARS-CoV Urbani [1]: 0.5; Binding of serum SARS-green to linear peptides of protein N of SARS-CoV Urbani [1]: 0.4; Binding of serum SARS-yellow to linear peptides of protein N of SARS-CoV Urbani [1]: 0.6
2 | ELSPRWYFYYLGTGP | 0.2 | 0.3 | 0.2 | 0.2 | 0.3 | 0.4 | 0.2 | 0.8 | 0.7 | 0.4 | 0.3 | 0.5 | 0.1 | 0.2 | 0.7 | 0.6 | 0.5 | 0.5 | 0.1 | 0.4 | Binding of serum 6 to linear peptides of protein N of SARS-CoV Urbani [1]: 0.2; Binding of serum 37 to linear peptides of protein N of SARS-CoV Urbani [1]: 0.8; Binding of serum 62 to linear peptides of protein N of SARS-CoV Urbani [1]: 0.7; Binding of serum London to linear peptides of protein N of SARS-CoV Urbani [1]: 0.5; Binding of serum SARS-green to linear peptides of protein N of SARS-CoV Urbani [1]: 0.4; Binding of serum SARS-yellow to linear peptides of protein N of SARS-CoV Urbani [1]: 0.7
3 | EPKKDKKKKTDEAQP | 0.2 | 0.2 | 0.1 | 0.1 | 2.4 | 2.1 | 0.1 | 0.4 | 0.3 | 0.3 | 0.0 | 0.1 | 0.1 | 0.2 |  |  |  |  | 0.2 | 0.3 | Binding of serum 6 to linear peptides of protein N of SARS-CoV Urbani [1]: 0.2; Binding of serum 37 to linear peptides of protein N of SARS-CoV Urbani [1]: 0.7; Binding of serum 62 to linear peptides of protein N of SARS-CoV Urbani [1]: 0.7; Binding of serum London to linear peptides of protein N of SARS-CoV Urbani [1]: 0.7; Binding of serum SARS-green to linear peptides of protein N of SARS-CoV Urbani [1]: 0.5; Binding of serum SARS-yellow to linear peptides of protein N of SARS-CoV Urbani [1]: 0.6; Control Serum Blood-Bank Looped peptides [3]: 0.5; Control serum Blood-bank linear peptides [3]: 0.8; Control serum LUMC linear peptides [3]: 0.8; Control serum LUMC looped peptides [3]: 0.3
4 | EQTQGNFGDQDLIRQ |  | 0.3 |  | 0.1 |  | 0.4 | 0.3 | 0.2 | 0.3 | 0.3 | 1.3 | 0.3 | 0.1 | 0.0 | 0.6 | 1.0 | 1.0 | 0.6 | 0.2 | 0.0 | Recognition of the peptide by sera of SARS-CoV infected individuals, and form (linear, looped/cyclic) in which it is recognized [1]: recognized in linear form
5 | ESKVSGKGQQQQGQT |  | 0.6 |  | 0.4 |  | 0.8 | 0.4 | 0.7 | 0.7 | 0.8 | 0.7 | 0.9 | 0.1 | 0.2 | 1.1 | 0.7 | 0.8 | 0.9 | 0.1 | 0.6 | Binding of serum 1a to linear peptide (PEPSCAN-ELISA) [1]: 0.2; Binding of serum 1b to linear peptide (PEPSCAN-ELISA) [1]: 0.1; Binding of serum 2 to linear peptide (PEPSCAN-ELISA) [1]: 0.2; Binding of serum 6 to linear peptide (PEPSCAN-ELISA) [1]: 0.2; Binding of serum 37 to linear peptide (PEPSCAN-ELISA) [1]: 0.6; Binding of serum 62 to linear peptide (PEPSCAN-ELISA) [1]: 0.7; Binding of serum London to linear peptide (PEPSCAN-ELISA) [1]: 0.5; Binding of serum SARS-green to linear peptide (PEPSCAN-ELISA) [1]: 0.4; Binding of serum SARS-yellow to linear peptide (PEPSCAN-ELISA) [1]: 0.7
